Key:
Assay type in all cases: biochemical
[1] = molecular target: recombinant JAK1 (amino acids 866-1154) (Homo sapiens (Human), UniProt P23458); assay: Enzyme inhibition studies, JAK1 (peptide phosphorylation, Caliper LC3000); settings: ATP concentration not given (assayed at ATP Km 55 μM and at 5 mM)
Description: (§1) Enzyme inhibition studies were performed using recombinant JAK1 (amino acids 866-1154, Life Technologies, #PV4774, Carlsbad, Calif.), JAK2 (amino acids 831-1132), or JAK3 (amino acids 781-1124) under buffer conditions of 50 mM HEPES pH 7.3, 1 mM DTT, 0.01% Tween® 20, 50 μg/mL BSA, and 10 mM MgCl2. JAK enzyme was expressed as an N-terminal GST fusion in insect cells and purified by glutathione-affinity and size-exclusion chromatographies. […] Phosphorylated and unphosphorylated peptides were separated and quantified by a Caliper LC3000 system (Caliper Life Sciences, MA) for calculating percent inhibition.

[2] = molecular target: recombinant JAK3 (amino acids 781-1124) (Homo sapiens (Human), UniProt P52333); assay: Enzyme inhibition studies, JAK3 (peptide phosphorylation, Caliper LC3000); settings: ATP concentration of the tabulated values not stated (assayed at ATP Km 3 μM and at 5 mM)
Description: as §1

[3] = molecular target: recombinant JAK2 (amino acids 831-1132) (Homo sapiens (Human), UniProt O60674); assay: Enzyme inhibition studies, JAK2 (peptide phosphorylation, Caliper LC3000); settings: ATP concentration of the tabulated values not stated (assayed at ATP Km 15 μM and at 5 mM)
Description: as §1

Chain of recombinant JAK1 (amino acids 866-1154) (P23458 866-1154): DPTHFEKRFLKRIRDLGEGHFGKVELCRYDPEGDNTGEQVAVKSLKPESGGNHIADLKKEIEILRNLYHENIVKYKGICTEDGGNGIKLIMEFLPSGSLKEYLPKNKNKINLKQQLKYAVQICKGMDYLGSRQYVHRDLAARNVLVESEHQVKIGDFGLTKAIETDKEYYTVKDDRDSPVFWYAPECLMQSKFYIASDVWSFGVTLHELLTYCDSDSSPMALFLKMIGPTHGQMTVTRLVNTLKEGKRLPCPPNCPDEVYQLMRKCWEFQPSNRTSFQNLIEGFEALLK
Chain of recombinant JAK2 (amino acids 831-1132) (O60674 831-1132): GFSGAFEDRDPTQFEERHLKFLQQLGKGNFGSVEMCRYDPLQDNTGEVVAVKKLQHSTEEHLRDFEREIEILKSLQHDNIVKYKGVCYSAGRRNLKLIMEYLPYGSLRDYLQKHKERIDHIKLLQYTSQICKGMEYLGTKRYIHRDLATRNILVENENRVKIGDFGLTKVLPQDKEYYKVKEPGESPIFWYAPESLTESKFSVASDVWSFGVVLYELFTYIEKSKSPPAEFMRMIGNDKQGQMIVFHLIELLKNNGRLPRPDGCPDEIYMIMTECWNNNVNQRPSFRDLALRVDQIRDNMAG
Chain of recombinant JAK3 (amino acids 781-1124) (P52333 781-1124): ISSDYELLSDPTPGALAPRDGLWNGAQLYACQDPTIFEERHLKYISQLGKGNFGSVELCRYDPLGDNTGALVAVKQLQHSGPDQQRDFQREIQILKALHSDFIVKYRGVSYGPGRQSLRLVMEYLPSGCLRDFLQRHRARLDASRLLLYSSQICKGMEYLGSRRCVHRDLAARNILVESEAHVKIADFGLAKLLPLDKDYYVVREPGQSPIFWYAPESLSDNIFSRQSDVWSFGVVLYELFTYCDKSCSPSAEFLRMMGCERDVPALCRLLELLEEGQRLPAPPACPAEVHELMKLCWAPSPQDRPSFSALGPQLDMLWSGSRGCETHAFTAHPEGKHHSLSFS

Row | IC50 [1] | IC50 [2] | IC50 [3] | Compound
1 | 0.847 µM |  |  | COc1nn(C)cc1Nc1nccc(-c2c[nH]c3c(NC(=O)[C@@H](C)N4CCN(C)C[C@@H]4C)cccc23)n1 [Example 1, (2R)-2-[(2S)-2,4-dimethylpiperazin-1-yl]-N-(3-{2-[(3-methoxy-1-methyl-1H-pyrazol-4-yl)amino]pyrimidin-4-yl}-1H-indol-7-yl)propanamide]
2 | 0.085 µM | > 30 µM | 12.8 µM | COc1nn(C)cc1Nc1ncc(F)c(-c2c[nH]c3c(NC(=O)[C@@H](C)N4CCN(C)[C@H](C)C4)cccc23)n1 [Example 2, (2R)-2-[(3R)-3,4-dimethylpiperazin-1-yl]-N-(3-{5-fluoro-2-[(3-methoxy-1-methyl-1H-pyrazol-4-yl)amino]pyrimidin-4-yl}-1H-indol-7-yl)propanamide]
3 | 0.191 µM | > 30 µM | 26.8 µM | COCCN1CCN([C@H](C)C(=O)Nc2cccc3c(-c4nc(Nc5cn(C)nc5OC)ncc4F)c[nH]c23)CC1 [Example 3, (2R)-N-(3-{5-fluoro-2-[(3-methoxy-1-methyl-1H-pyrazol-4-yl)amino]pyrimidin-4-yl}-1H-indol-7-yl)-2-[4-(2-methoxyethyl)piperazin-1-yl]propanamide]
4 | 0.043 µM | > 30 µM | 6.57 µM | CCN1CCN([C@H](C)C(=O)Nc2cccc3c(-c4nc(Nc5cn(C)nc5OC)ncc4F)c[nH]c23)CC1 [Example 4, (2R)-2-(4-ethylpiperazin-1-yl)-N-(3-{5-fluoro-2-[(3-methoxy-1-methyl-1H-pyrazol-4-yl)amino]pyrimidin-4-yl}-1H-indol-7-yl)propanamide]
5 | 0.024 µM | > 30 µM | 10.4 µM | COc1nn(C)cc1Nc1ncc(F)c(-c2c[nH]c3c(NC(=O)[C@@H](C)N4CCN(C)[C@@H](C)C4)cccc23)n1 [Example 5, (2R)-2-[(3S)-3,4-dimethylpiperazin-1-yl]-N-(3-{5-fluoro-2-[(3-methoxy-1-methyl-1H-pyrazol-4-yl)amino]pyrimidin-4-yl}-1H-indol-7-yl)propanamide]
6 | 0.03 µM | > 30 µM | 9.62 µM | COc1nn(C)cc1Nc1ncc(F)c(-c2c[nH]c3c(NC(=O)[C@@H](C)N4CCN(C)C[C@H]4C)cccc23)n1 [Example 6]
7 | 0.359 µM | > 30 µM | > 30 µM | COc1nn(C)cc1Nc1ncc(F)c(-c2c[nH]c3c(NC(=O)[C@@H](C)N4CCN(C)C[C@@H]4C)cccc23)n1 [Example 7a, (2R)-2-[(2S)-2,4-dimethylpiperazin-1-yl]-N-(3-{5-fluoro-2-[(3-methoxy-1-methyl-1H-pyrazol-4-yl)amino]pyrimidin-4-yl}-1H-indol-7-yl)propanamide]
8 | 3.6 µM | > 30 µM | > 30 µM | COc1nn(C)cc1Nc1ncc(F)c(-c2c[nH]c3c(NC(=O)[C@H](C)N4CCN(C)C[C@@H]4C)cccc23)n1 [Example 7b, (2S)-2-[(2S)-2,4-dimethylpiperazin-1-yl]-N-(3-{5-fluoro-2-[(3-methoxy-1-methyl-1H-pyrazol-4-yl)amino]pyrimidin-4-yl}-1H-indol-7-yl)propanamide]
9 | 0.11 µM | > 30 µM | 23.6 µM | CCOc1nn(C)cc1Nc1ncc(F)c(-c2c[nH]c3c(NC(=O)[C@@H](C)N4CCN(CC)CC4)cccc23)n1 [Example 8, (2R)-N-(3-{2-[(3-ethoxy-1-methyl-1H-pyrazol-4-yl)amino]-5-fluoropyrimidin-4-yl}-1H-indol-7-yl)-2-(4-ethylpiperazin-1-yl)propanamide]
10 | 0.426 µM | > 30 µM | > 30 µM | CCOc1nn(C)cc1Nc1ncc(F)c(-c2c[nH]c3c(NC(=O)[C@@H](C)N4CCN(CCOC)CC4)cccc23)n1 [Example 9, (2R)-N-(3-{2-[(3-ethoxy-1-methyl-1H-pyrazol-4-yl)amino]-5-fluoropyrimidin-4-yl}-1H-indol-7-yl)-2-[4-(2-methoxyethyl)piperazin-1-yl]propanamide]
11 | 0.846 µM |  |  | CCOc1nn(C)cc1Nc1ncc(F)c(-c2c[nH]c3c(NC(=O)[C@@H](C)N4CCN(C)C[C@@H]4C)cccc23)n1 [Example 10a, (2R)-2-[(2S)-2,4-dimethylpiperazin-1-yl]-N-(3-{2-[(3-ethoxy-1-methyl-1H-pyrazol-4-yl)amino]-5-fluoropyrimidin-4-yl}-1H-indol-7-yl)propanamide]
12 | 7.6 µM |  |  | CCOc1nn(C)cc1Nc1ncc(F)c(-c2c[nH]c3c(NC(=O)[C@H](C)N4CCN(C)C[C@@H]4C)cccc23)n1 [Example 10b, (2S)-2-[(2S)-2,4-dimethylpiperazin-1-yl]-N-(3-{2-[(3-ethoxy-1-methyl-1H-pyrazol-4-yl)amino]-5-fluoropyrimidin-4-yl}-1H-indol-7-yl)propanamide]
13 | 0.04 µM | > 30 µM | > 30 µM | CCOc1nn(C)cc1Nc1ncc(F)c(-c2c[nH]c3c(NC(=O)[C@@H](C)N4CCN(C)[C@@H](C)C4)cccc23)n1 [Example 11a, (2R)-2-[(3S)-3,4-dimethylpiperazin-1-yl]-N-(3-{2-[(3-ethoxy-1-methyl-1H-pyrazol-4-yl)amino]-5-fluoropyrimidin-4-yl}-1H-indol-7-yl)propanamide]
14 | 1.85 µM | > 30 µM | > 30 µM | CCOc1nn(C)cc1Nc1ncc(F)c(-c2c[nH]c3c(NC(=O)[C@H](C)N4CCN(C)[C@@H](C)C4)cccc23)n1 [Example 11b, (2S)-2-[(3S)-3,4-dimethylpiperazin-1-yl]-N-(3-{2-[(3-ethoxy-1-methyl-1H-pyrazol-4-yl)amino]-5-fluoropyrimidin-4-yl}-1H-indol-7-yl)propanamide]
15 | 0.068 µM |  |  | CCOc1nn(C)cc1Nc1ncc(F)c(-c2c[nH]c3c(NC(=O)[C@@H](C)N4CCN(C)C[C@H]4C)cccc23)n1 [Example 12, (2R)-2-[(2R)-2,4-dimethylpiperazin-1-yl]-N-(3-{2-[(3-ethoxy-1-methyl-1H-pyrazol-4-yl)amino]-5-fluoropyrimidin-4-yl}-1H-indol-7-yl)propanamide]
16 | 0.166 µM | > 30 µM | > 30 µM | CCOc1nn(C)cc1Nc1ncc(F)c(-c2c[nH]c3c(NC(=O)[C@@H](C)N4CCN(C)[C@H](C)C4)cccc23)n1 [Example 13, (2R)-2-[(3R)-3,4-dimethylpiperazin-1-yl]-N-(3-{2-[(3-ethoxy-1-methyl-1H-pyrazol-4-yl)amino]-5-fluoropyrimidin-4-yl}-1H-indol-7-yl)propanamide]
17 | 0.009 µM | > 30 µM | 6.39 µM | COc1nn(C)cc1Nc1ncc(C)c(-c2c[nH]c3c(NC(=O)[C@@H](C)N4CCN(C)[C@@H](C)C4)cccc23)n1 [Example 14, (2R)-2-[(3S)-3,4-dimethylpiperazin-1-yl]-N-(3-{2-[(3-methoxy-1-methyl-1H-pyrazol-4-yl)amino]-5-methylpyrimidin-4-yl}-1H-indol-7-yl)propanamide]
18 | 0.007 µM | > 30 µM | 2.53 µM | COc1nn(C)cc1Nc1ncc(C)c(-c2c[nH]c3c(NC(=O)[C@@H](C)N4CCN(CCO)CC4)cccc23)n1 [Example 15, (2R)-2-[4-(2-hydroxyethyl)piperazin-1-yl]-N-(3-{2-[(3-methoxy-1-methyl-1H-pyrazol-4-yl)amino]-5-methylpyrimidin-4-yl}-1H-indol-7-yl)propanamide]
19 | 0.019 µM | > 30 µM | 6.24 µM | CCN1CCN([C@H](C)C(=O)Nc2cccc3c(-c4nc(Nc5cn(C)nc5OC)ncc4C)c[nH]c23)CC1 [Example 16, (2R)-2-(4-ethylpiperazin-1-yl)-N-(3-{2-[(3-methoxy-1-methyl-1H-pyrazol-4-yl)amino]-5-methylpyrimidin-4-yl}-1H-indol-7-yl)propanamide]
20 | 0.107 µM | > 30 µM | 18.1 µM | COCCN1CCN([C@H](C)C(=O)Nc2cccc3c(-c4nc(Nc5cn(C)nc5OC)ncc4C)c[nH]c23)CC1 [Example 17, (2R)-2-[4-(2-methoxyethyl)piperazin-1-yl]-N-(3-{2-[(3-methoxy-1-methyl-1H-pyrazol-4-yl)amino]-5-methylpyrimidin-4-yl}-1H-indol-7-yl)propanamide]
21 | 0.097 µM |  |  | COc1nn(C)cc1Nc1nccc(-c2c[nH]c3c(NC(=O)[C@@H](C)N4CCN(C)C[C@H]4C)cccc23)n1 [Example 29, (2R)-2-[(2R)-2,4-dimethylpiperazin-1-yl]-N-(3-{2-[(3-methoxy-1-methyl-1H-pyrazol-4-yl)amino]pyrimidin-4-yl}-1H-indol-7-yl)propanamide]
22 | < 0.003 µM |  |  | CC[C@H](C(=O)Nc1cccc2c(-c3nc(Nc4cn(C)nc4OC)ncc3F)c[nH]c12)N1CCN(C)CC1 [Example 51, (2R)-N-(3-{5-fluoro-2-[(3-methoxy-1-methyl-1H-pyrazol-4-yl)amino]pyrimidin-4-yl}-1H-indol-7-yl)-2-(4-methylpiperazin-1-yl)butanamide]
23 | 0.296 µM |  |  | CC[C@@H](C(=O)Nc1cccc2c(-c3nc(Nc4cn(C)nc4OC)ncc3F)c[nH]c12)N1CCN(C)CC1 [Example 52, (2S)-N-(3-{5-fluoro-2-[(3-methoxy-1-methyl-1H-pyrazol-4-yl)amino]pyrimidin-4-yl}-1H-indol-7-yl)-2-(4-methylpiperazin-1-yl)butanamide]
